The values below come from paper PMC6060094, “Structural determinants of the catalytic mechanism of Plasmodium CCT, a key enzyme of malaria lipid biosynthesis” (Scientific Reports, 2018).

Structures are written as SMILES.

For the experiment, the target named is T1, PfCCT(581–775) (Plasmodium falciparum, UniProt P49587, DEL194-211).
T1 construct: The PfCCT(581–775) construct was obtained using previously described PfCCT(528–795); 6xHis (TEV-cleavable) (N, cleaved yes); made in house; host or cells: E. coli BL21 (DE3)
The experiment can be described thus: Saturation Transfer Difference NMR (STD-NMR) ligand binding. Conditions: ligand 1 mM; 50 µM PfCCT(581-775), 283 K. As to the method:
In order to provide structural insights into the mechanism of action of PfCCT, we set out to crystallize the constitutively active C-terminal catalytic domain of PfCCT. Several constructs were tested and our attempts were successful only in case of PfCCT(581–775) that corresponds to the exact region visible in the crystal structure of RnCCT (PDB: 3HL4)[20] (Fig. 1a). […] (Table 1 and Supplementary Fig. S1). We further assessed the functionality of PfCCT(581–775) by characterizing its substrate and product binding ability. […] Saturation Transfer Difference Nuclear Magnetic Resonance (STD-NMR) experiments indicated STD signal of CTP, ChoP and CDPCho bound to PfCCT(581–775) at 1 mM, 4 mM and 1 mM concentrations, respectively (Supplementary Fig. S1). This latter result is consistent with previously observed unusually low ChoP affinity of PfCCT[16]. We concluded that PfCCT(581–775) is compatible with substrate and product recognition and may be amenable to structural studies provided that its compromised enzymatic function is taken into account in structure-based interpretations. It is likely that the drop of PfCCT(581–775) enzyme activity is due to the elimination of the C-terminal flanking part as similarly located truncations in the RnCCT catalytic domain also led to severe loss of activity[28],[29]. […]
Kinetic data are fitted with the Michaelis–Menten equation. […] Values of the measured kinetic and thermodynamic parameters and their errors […]
(black) of 50 µM PfCCT(581-775) in 20 mM Tris/HCl pH 7.5, 150 mM NaCl and 2 mM EtSH are shown in presence of c) 1 mM CTP, d) 4 mM ChoP and e) 1 mM CDPCho. […] The 1D 1H STD-NMR spectra were recorded on a Bruker 500 MHz instrument at 283 K with 256 scans and selective saturation of protein resonances at 0.922 ppm using a series of Gaussian shaped pulses (20 ms, 1 ms delay between the pulses). […] All 1D 1H NMR spectra were recorded […]

On to `Nc1ccn([C@@H]2O[C@H](COP(=O)(O)OP(=O)(O)OP(=O)(O)O)[C@@H](O)[C@H]2O)c(=O)n1` [CTP], for which the “STD-NMR signal of ligand bound to enzyme” value is on record as “STD signal”.
